According to patent US6472348B1, “Pyridone derivatives and herbicides” (Kumiai Chemical Industry Co., Ltd., priority 1996, dated 2002):

tested on: barnyardgrass (Ec); assay: Test Example 1: herbicidal effects by paddy field soil treatment; assay type: in vivo; conditions: 100 g of the active ingredient per 10 ares, 21st day after the application, index 0-5 of Table 47;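 further: grade of growth control; 5 = at least 90%; 4 = 70 to 90%; 3 = 50 to 70%; 2 = 30 to 50%; 1 = 10 to 30%; 0 = under 10%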
How it was run: (§1)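 Flooded paddy-soil pots (3 cm water) sown after puddling/leveling; treatment 100 g a.i./10 ares; greenhouse culture; herbicidal effect rated visually on a scoring scale at 21 d post-application.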

SMILES	Herbicidal effects Ec
CC(C#N)Oc1cc(-c2ccc(C(F)(F)F)n(C)c2=O)c(F)cc1Cl (centres unmarked) [1-176]	5
C#CCOc1cc(-c2ccc(C(F)(F)F)n(C)c2=O)ccc1Cl [1-106]	5

tested on: bulrush (Sc); assay: as above; assay type: in vivo; conditions: 100 g of the active ingredient per 10 ares, 21st day after the application, index 0-5 of Table 47;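 further: grade of growth control; 5 = at least 90%; 4 = 70 to 90%; 3 = 50 to 70%; 2 = 30 to 50%; 1 = 10 to 30%; 0 = under 10%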
How it was run: as §1

SMILES	Herbicidal effects Sc
CC(C#N)Oc1cc(-c2ccc(C(F)(F)F)n(C)c2=O)c(F)cc1Cl (centres unmarked) [1-176]	5
C#CCOc1cc(-c2ccc(C(F)(F)F)n(C)c2=O)ccc1Cl [1-106]	5

tested on: monochoria (Mo); assay: as above; assay type: in vivo; conditions: 100 g of the active ingredient per 10 ares, 21st day after the application, index 0-5 of Table 47;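 further: grade of growth control; 5 = at least 90%; 4 = 70 to 90%; 3 = 50 to 70%; 2 = 30 to 50%; 1 = 10 to 30%; 0 = under 10%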
How it was run: as §1

SMILES	Herbicidal effects Mo
CC(C#N)Oc1cc(-c2ccc(C(F)(F)F)n(C)c2=O)c(F)cc1Cl (centres unmarked) [1-176]	5
C#CCOc1cc(-c2ccc(C(F)(F)F)n(C)c2=O)ccc1Cl [1-106]	5

tested on: Digitaria ciliaris (Di); assay: Test Example 2: herbicidal effects by upland field soil treatment; assay type: in vivo; conditions: 100 g of the active ingredient per 10 ares, 21st day after the application, index 0-5 of Table 47;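 further: grade of growth control; 5 = at least 90%; 4 = 70 to 90%; 3 = 50 to 70%; 2 = 30 to 50%; 1 = 10 to 30%; 0 = under 10%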
Text: (§2) (Test on Herbicidal Effects by Upland Field Soil Treatment)

SMILES	Herbicidal effects Di
C#CCOc1cc(-c2ccc(C(F)(F)F)n(C)c2=O)ccc1Cl [1-106]	5

same assay, conditions: 100 g of the active ingredient per 10 ares, evaluated on the 21st day after application

SMILES	Herbicidal effects Di
CC(C#N)Oc1cc(-c2ccc(C(F)(F)F)n(C)c2=O)c(F)cc1Cl (centres unmarked) [1-176]	5

tested on: barnyardgrass (Ec); assay: as above; assay type: in vivo; conditions: 100 g of the active ingredient per 10 ares, 21st day after the application, index 0-5 of Table 47
Text: as §2

SMILES	Herbicidal effects Ec
C#CCOc1cc(-c2ccc(C(F)(F)F)n(C)c2=O)ccc1Cl [1-106]	5

same assay, conditions: 100 g of the active ingredient per 10 ares, evaluated on the 21st day after application

SMILES	Herbicidal effects Ec
CC(C#N)Oc1cc(-c2ccc(C(F)(F)F)n(C)c2=O)c(F)cc1Cl (centres unmarked) [1-176]	5

tested on: common lambsquarters (Ch); assay: as above; assay type: in vivo; conditions: 100 g of the active ingredient per 10 ares, 21st day after the application, index 0-5 of Table 47
Text: as §2

SMILES	Herbicidal effects Ch
C#CCOc1cc(-c2ccc(C(F)(F)F)n(C)c2=O)ccc1Cl [1-106]	5

same assay, conditions: 100 g of the active ingredient per 10 ares, evaluated on the 21st day after application

SMILES	Herbicidal effects Ch
CC(C#N)Oc1cc(-c2ccc(C(F)(F)F)n(C)c2=O)c(F)cc1Cl (centres unmarked) [1-176]	5

tested on: pale smartweed (Po); assay: as above; assay type: in vivo; conditions: 100 g of the active ingredient per 10 ares, 21st day after the application, index 0-5 of Table 47
Text: as §2

SMILES	Herbicidal effects Po
C#CCOc1cc(-c2ccc(C(F)(F)F)n(C)c2=O)ccc1Cl [1-106]	5

same assay, conditions: 100 g of the active ingredient per 10 ares, evaluated on the 21st day after application

SMILES	Herbicidal effects Po
CC(C#N)Oc1cc(-c2ccc(C(F)(F)F)n(C)c2=O)c(F)cc1Cl (centres unmarked) [1-176]	5

tested on: rice flatsedge (Ci); assay: as above; assay type: in vivo; conditions: 100 g of the active ingredient per 10 ares, 21st day after the application, index 0-5 of Table 47
Text: as §2

SMILES	Herbicidal effects Ci
C#CCOc1cc(-c2ccc(C(F)(F)F)n(C)c2=O)ccc1Cl [1-106]	5

same assay, conditions: 100 g of the active ingredient per 10 ares, evaluated on the 21st day after application

SMILES	Herbicidal effects Ci
CC(C#N)Oc1cc(-c2ccc(C(F)(F)F)n(C)c2=O)c(F)cc1Cl (centres unmarked) [1-176]	5

tested on: slender amaranth (Am); assay: as above; assay type: in vivo; conditions: 100 g of the active ingredient per 10 ares, 21st day after the application, index 0-5 of Table 47
Text: as §2

SMILES	Herbicidal effects Am
C#CCOc1cc(-c2ccc(C(F)(F)F)n(C)c2=O)ccc1Cl [1-106]	5

same assay, conditions: 100 g of the active ingredient per 10 ares, evaluated on the 21st day after application

SMILES	Herbicidal effects Am
CC(C#N)Oc1cc(-c2ccc(C(F)(F)F)n(C)c2=O)c(F)cc1Cl (centres unmarked) [1-176]	5

tested on: Diaitaria ciliaris (Di); assay: Test Example 3: herbicidal effects by upland field foliage treatment; assay type: in vivo; design: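 grade of growth control; 5 = at least 90%; 4 = 70 to 90%; 3 = 50 to 70%; 2 = 30 to 50%; 1 = 10 to 30%; 0 = under 10%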; conditions: 100 g of the active ingredient per 10 ares, evaluated on the 14th day after treatment
How it was run: (§3)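 Post-emergence upland foliage test. Seedlings grown 2 weeks under glass in pots (120 cm^2) of sand, seed topped with soil; treated on the foliage, kept in greenhouse, then assessed at day 14 using rating standards.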

SMILES	Herbicidal effects Di
CC(C#N)Oc1cc(-c2ccc(C(F)(F)F)n(C)c2=O)c(F)cc1Cl (centres unmarked) [1-176]	5
C#CCOc1cc(-c2ccc(C(F)(F)F)n(C)c2=O)ccc1Cl [1-106]	5

tested on: barnyardgrass (Ec); assay: as above; assay type: in vivo; design: scale not given here; conditions: 100 g of the active ingredient per 10 ares, evaluated on the 14th day after treatment
How it was run: as §3

SMILES	Herbicidal effects Ec
CC(C#N)Oc1cc(-c2ccc(C(F)(F)F)n(C)c2=O)c(F)cc1Cl (centres unmarked) [1-176]	5
C#CCOc1cc(-c2ccc(C(F)(F)F)n(C)c2=O)ccc1Cl [1-106]	5

tested on: common lambsquarters (Ch); assay: as above; assay type: in vivo; design: scale not given here; conditions: 100 g of the active ingredient per 10 ares, evaluated on the 14th day after treatment
How it was run: as §3

SMILES	Herbicidal effects Ch
CC(C#N)Oc1cc(-c2ccc(C(F)(F)F)n(C)c2=O)c(F)cc1Cl (centres unmarked) [1-176]	5
C#CCOc1cc(-c2ccc(C(F)(F)F)n(C)c2=O)ccc1Cl [1-106]	5

tested on: pale smartweed (Po); assay: as above; assay type: in vivo; design: scale not given here; conditions: 100 g of the active ingredient per 10 ares, evaluated on the 14th day after treatment
How it was run: as §3

SMILES	Herbicidal effects Po
CC(C#N)Oc1cc(-c2ccc(C(F)(F)F)n(C)c2=O)c(F)cc1Cl (centres unmarked) [1-176]	5
C#CCOc1cc(-c2ccc(C(F)(F)F)n(C)c2=O)ccc1Cl [1-106]	5

tested on: rice flatsedge (Ci); assay: as above; assay type: in vivo; design: scale not given here; conditions: 100 g of the active ingredient per 10 ares, evaluated on the 14th day after treatment
How it was run: as §3

SMILES	Herbicidal effects Ci
CC(C#N)Oc1cc(-c2ccc(C(F)(F)F)n(C)c2=O)c(F)cc1Cl (centres unmarked) [1-176]	5
C#CCOc1cc(-c2ccc(C(F)(F)F)n(C)c2=O)ccc1Cl [1-106]	5

tested on: slender amaranth (Am); assay: as above; assay type: in vivo; design: scale not given here; conditions: 100 g of the active ingredient per 10 ares, evaluated on the 14th day after treatment
How it was run: as §3

SMILES	Herbicidal effects Am
CC(C#N)Oc1cc(-c2ccc(C(F)(F)F)n(C)c2=O)c(F)cc1Cl (centres unmarked) [1-176]	5
C#CCOc1cc(-c2ccc(C(F)(F)F)n(C)c2=O)ccc1Cl [1-106]	5

tested on: wheat (Tr); assay: Test Example 9: crop plant selectivity by upland field foliage treatment (wheat), phytotoxicity; conditions: dose 1.6 g ai/10a, 14th day after treatment
How it was run: (§4)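 Wheat and weeds sown in sand-filled pots, grown 2 weeks in a greenhouse, then foliage-treated. Herbicidal effect and crop phytotoxicity were scored 14 days after treatment against a rating scale.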

SMILES	Phytotoxicity Tr
CC(C#N)Oc1cc(-c2ccc(C(F)(F)F)n(C)c2=O)c(F)cc1Cl (centres unmarked) [1-176]	1
C#CCOc1cc(-c2ccc(C(F)(F)F)n(C)c2=O)ccc1Cl [1-106]	2

tested on: China jute (Ab); assay: Test Example 9: crop plant selectivity by upland field foliage treatment (wheat), herbicidal effects; assay type: in vivo; design: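 grade of growth control; 5 = at least 90%; 4 = 70 to 90%; 3 = 50 to 70%; 2 = 30 to 50%; 1 = 10 to 30%; 0 = under 10%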; conditions: dose 1.6 g ai/10a, 14th day after treatment
How it was run: as §4

SMILES	Herbicidal effects Ab
CC(C#N)Oc1cc(-c2ccc(C(F)(F)F)n(C)c2=O)c(F)cc1Cl (centres unmarked) [1-176]	5
C#CCOc1cc(-c2ccc(C(F)(F)F)n(C)c2=O)ccc1Cl [1-106]	5

tested on: common lambsquarters (Ch); assay: as above; assay type: in vivo; design: scale not given here; conditions: dose 1.6 g ai/10a, 14th day after treatment
How it was run: as §4

SMILES	Herbicidal effects Ch
CC(C#N)Oc1cc(-c2ccc(C(F)(F)F)n(C)c2=O)c(F)cc1Cl (centres unmarked) [1-176]	5
C#CCOc1cc(-c2ccc(C(F)(F)F)n(C)c2=O)ccc1Cl [1-106]	5

tested on: pale smartweed (Po); assay: as above; assay type: in vivo; design: scale not given here; conditions: dose 1.6 g ai/10a, 14th day after treatment
How it was run: as §4

SMILES	Herbicidal effects Po
CC(C#N)Oc1cc(-c2ccc(C(F)(F)F)n(C)c2=O)c(F)cc1Cl (centres unmarked) [1-176]	5
C#CCOc1cc(-c2ccc(C(F)(F)F)n(C)c2=O)ccc1Cl [1-106]	5

tested on: slender amaranth (Am); assay: as above; assay type: in vivo; design: scale not given here; conditions: dose 1.6 g ai/10a, 14th day after treatment
How it was run: as §4

SMILES	Herbicidal effects Am
CC(C#N)Oc1cc(-c2ccc(C(F)(F)F)n(C)c2=O)c(F)cc1Cl (centres unmarked) [1-176]	5
C#CCOc1cc(-c2ccc(C(F)(F)F)n(C)c2=O)ccc1Cl [1-106]	5

tested on: corn (Ze); assay: Test Example 11: crop plant selectivity by upland field foliage treatment (corn), phytotoxicity; conditions: upland field foliage treatment, dose 1.6 g ai/10a, 14th day after treatment
Procedure: (§5) (Test on Crop Plant Selectivity by Upland Field Foliage Treatment)
(§6) In a plastic pot (surface area: 600 cm^2) filled with sand, corn (Ze), pale smartweed (Po), slender amaranth (Am), common lambsquarters (Ch) and China jute (Ab) were sown and cultured in a green house for 2 weeks. […] The plants were then cultured in a green house, and the evaluation of the herbicidal effects and phytotoxicity was conducted on the 14th day after the treatment in accordance with the standards as identified in Table 47.

SMILES	Phytotoxicity Ze
CC(C#N)Oc1cc(-c2ccc(C(F)(F)F)n(C)c2=O)c(F)cc1Cl (centres unmarked) [1-176]	1
C#CCOc1cc(-c2ccc(C(F)(F)F)n(C)c2=O)ccc1Cl [1-106]	2

tested on: China jute (Ab); assay: Test Example 11: crop plant selectivity by upland field foliage treatment (corn), herbicidal effects; assay type: in vivo; design: scale not given here; conditions: upland field foliage treatment (corn test), dose 1.6 g ai/10a, 14th day after treatment
Procedure: as §5, §6

SMILES	Herbicidal effects Ab
CC(C#N)Oc1cc(-c2ccc(C(F)(F)F)n(C)c2=O)c(F)cc1Cl (centres unmarked) [1-176]	5
C#CCOc1cc(-c2ccc(C(F)(F)F)n(C)c2=O)ccc1Cl [1-106]	5

tested on: common lambsquarters (Ch); assay: as above; assay type: in vivo; design: scale not given here; conditions: upland field foliage treatment (corn test), dose 1.6 g ai/10a, 14th day after treatment
Procedure: as §5, §6

SMILES	Herbicidal effects Ch
CC(C#N)Oc1cc(-c2ccc(C(F)(F)F)n(C)c2=O)c(F)cc1Cl (centres unmarked) [1-176]	5
C#CCOc1cc(-c2ccc(C(F)(F)F)n(C)c2=O)ccc1Cl [1-106]	5

tested on: pale smartweed (Po); assay: as above; assay type: in vivo; design: scale not given here; conditions: upland field foliage treatment (corn test), dose 1.6 g ai/10a, 14th day after treatment
Procedure: as §5, §6

SMILES	Herbicidal effects Po
CC(C#N)Oc1cc(-c2ccc(C(F)(F)F)n(C)c2=O)c(F)cc1Cl (centres unmarked) [1-176]	5
C#CCOc1cc(-c2ccc(C(F)(F)F)n(C)c2=O)ccc1Cl [1-106]	5

tested on: slender amaranth (Am); assay: as above; assay type: in vivo; design: scale not given here; conditions: upland field foliage treatment (corn test), dose 1.6 g ai/10a, 14th day after treatment
Procedure: as §5, §6

SMILES	Herbicidal effects Am
CC(C#N)Oc1cc(-c2ccc(C(F)(F)F)n(C)c2=O)c(F)cc1Cl (centres unmarked) [1-176]	5
C#CCOc1cc(-c2ccc(C(F)(F)F)n(C)c2=O)ccc1Cl [1-106]	5
